Test system: patients with allergic rhinitis
Assay: Clinical application trial for treatment of allergic rhinitis
Format: in vivo, human
Method: 1. Clinical data: 60 cases (a total number) of outpatients and inpatients with allergic rhinitis were enrolled, and were randomly divided into a treatment group with 30 patients and a control group with 30 patients.
2. Diagnosis criteria: 2 or more clinical symptoms such as sneezing, clear water-like nasal discharge, nasal congestion, and nasal itching, appearing continuously or continually for 1 hour or more every day. It may be accompanied by eye symptoms such as eye itching and conjunctival hyperemia. Common signs often include pale nasal mucosa, edema, and watery nasal discharge. Positive in the allergen skin prick test.
3. […] The patients in the control group orally took loratadine 10 mg per time, once day, for 30 days.
4. […] Total effective rate=cured rate+effective rate.

CCOC(=O)N1CCC(=C2c3ccc(Cl)cc3CCc3cccnc32)CC1 [loratadine]
recurrence after treatment (6-month follow-up / after drug discontinuance): allergic symptoms appeared after contact with allergens after drug discontinuance | Effective (number of patients) (30 patients per group): 20 | Ineffective (number of patients) (30 patients per group): 10 | Total effective rate (%) (cured rate + effective rate) (30 patients per group): 66.67% | Cured (number of patients) (30 patients per group, cured = symptoms and signs disappear for 60 days without recurrence): 0 | adverse reactions occurred (control group of 30 patients): 5 cases
